Earlier results on one molecule are cited in patent US20220000797A1, “CLEAR PROPOFOL INJECTION AND PREPARATION METHOD THEREFOR” ((BIKA BIOTECHNOLOGY (GUANGZHOU) CO., LTD), priority 2018, published 2022).

Like-named read-outs stand apart in the source and are kept apart here.

Regarding `O=C([O-])O.[Na+]` [sodium bicarbonate], the injection pain result reads like this: (final concentration of sodium bicarbonate approaches 1.4%) “can reduce injection pain”; (low concentration of sodium bicarbonate (0.25%)) “cannot reduce injection pain”.
